Values of other authors, collected in patent US20170326105A1, “MELATONIN-BASED NASAL COMPOSITIONS AND USES THEREOF” (The Lester Smith Medical Research Institute, LLC, priority 2016, published 2017).

time for plasma levels to return to baseline (after discontinuation of chronic dosing of less than 10 mg/day): ≤ 24 h
estimated peak blood levels above physiological levels (doses of melatonin 5 mg): 25 times
time after administration for blood plasma concentration to reach its peak (oral administration): over an hour
Compound: COc1ccc2[nH]cc(CCNC(C)=O)c2c1 [melatonin, N-acetyl-5-methoxy tryptamine]
